Data: PubChem BioAssay (NCI)
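Interpolation was linear, between the two tested concentrations surrounding the appropriate level; five concentrations were tested over 48 hours in 96-well plates. Definition used: TGI = concentration required for complete inhibition of growth.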

Tests used:
Test in all cases: NCI anticancer screen, dose series, 48 h
SK-MEL-28 melanoma = test system: SK-MEL-28 melanoma
MALME-3M melanoma = test system: MALME-3M melanoma
HT29 colon = test system: HT29 colon
HOP-92 NSCLC = test system: HOP-92 NSCLC
HCT-116 colon = test system: HCT-116 colon
DU-145 prostate = test system: DU-145 prostate
HCC-2998 colon = test system: HCC-2998 colon
MCF7 breast = test system: MCF7 breast
SW-620 colon = test system: SW-620 colon
SF-295 CNS = test system: SF-295 CNS

Structure (SMILES)	TGI (SK-MEL-28 melanoma) [µM]	TGI (MALME-3M melanoma) [µM]	TGI (HT29 colon) [µM]	TGI (HOP-92 NSCLC) [µM]	TGI (HCT-116 colon) [µM]	TGI (DU-145 prostate) [µM]	TGI (HCC-2998 colon) [µM]	TGI (MCF7 breast) [µM]	TGI (SW-620 colon) [µM]	TGI (SF-295 CNS) [µM]
Cc1cc(S(=O)(=O)/N=C(/NN)Nc2ccc(Cl)cc2)c(S)cc1Cl	60.3	37.1	49.2	67.9	20	17.2	23.8	52	35.9	
Cc1ccc(S(=O)(=O)NC(=O)C2=C3SCCN3C(=O)N(S(=O)(=O)c3ccc(C)cc3)C2c2ccccc2)cc1 (stereo not given)	> 100	> 100	> 100	> 100	> 100	> 100	48	90.7	> 100	> 100
Cc1cc(-c2nc3cccc(O)c3s2)ccc1N	> 100		> 100	> 100	> 100	> 100	> 100	34.1	> 100	> 100
Cc1ncc(COP(=O)(O)O)c(/C=C2\SC(=S)NC2=O)c1O	> 100	> 100	> 100	> 100	> 100	> 100	> 100	> 100	> 100	> 100
CCOC(=O)c1cc(Br)c(-c2onc(C)c2Br)[nH]1	> 100	> 100	> 100	> 100	> 100	> 100	> 100	> 100	> 100	> 100
CCNc1cc2c3c(c1)CCN3CCC2	> 10	> 10	> 10	> 10	> 10	> 10	> 10	> 10	> 10	> 10
Cc1c([C@H](C)[C@@H]2NC[C@@H](C)C[C@H]2O)ccc2c1C[C@H]1[C@H]2CC=C2C[C@@H](O)CC[C@@]21C	37.5	36.5	42	23.3	30.6	> 100	30	31.5	> 100	40.8
O=C1NC(N2CCOCC2)=N/C1=C\c1ccc(O)cc1	> 100	> 100	> 100	> 100	> 100	> 100	> 100	> 100	> 100	> 100
CCSC1=CC2(O)N(CCc3ccc(OC)c(OC)c3)C(=O)CC2(C(=O)OC)CC1=O (stereo not given)	> 100		32.9	29.7	32.1	32.6	36	40.3	59	> 100
CCOc1cc2c(cc1O)C(O)C[C@@H]1[C@@H]2CC[C@]2(C)[C@@H](O)CC[C@@H]12 (stereo not given in full)	> 100	> 100	25.1	> 100	> 100	> 74	30.4	> 100	> 100	
Clc1cc(Cl)ncn1	> 100	> 100	> 100	> 100	> 100	> 100	> 100	> 100	> 100	> 100
COc1cccc(C2c3cc4c(cc3OC(Nc3ccccc3)C2C)OCO4)c1O (stereo not given)	27	35.3	37.7	9.93	36	> 53.9	36.3	> 75	36.8	18.7
CCCCCCCCOc1ccc(/C=C/C2=[N+](CCO)CCO2)cc1	9.12	12.2	8.26	6.51	10.2	16.4	11.9	> 100	6.8	16.9
C=C1CC(C)(c2cccc(Nc3nc4ccccc4c4occc34)c2)OC1=O (stereo not given)	26.8	39.1	16.6	7.29	3.1	19.9	5.84	16.4		34.9
CC(C)CCOC(=O)NC(Nc1ccc(F)cc1)(C(F)(F)F)C(F)(F)F	> 100	> 100	> 100	> 100	> 100	> 100	> 100	> 100	> 100	> 100
COc1ccccc1NC(=O)CC(=O)NN	> 100	> 100	> 100	> 100	> 100	> 100	> 100	> 100	> 100	> 100
O=c1c2nc(-c3ccccc3)oc2n(-c2ccccc2)c(=O)n1-c1ccccc1	> 100	> 31.6	> 46.4	24.4	> 46.4	> 100	> 46.4	> 46.4	> 46.4	42.4
CC(C)=CCC[C@@H](C)C1=C(O)C(Nc2ccccc2I)=C(C)C(=O)C1=O	> 75	29.8	28	50.2	34.8	69.2	56.7	> 75	> 75	> 38.9
